Reference: ChEMBL document CHEMBL1201862, “PubChem BioAssay data set” (2004)
Where a name gives a salt, the structure may show the parent alone.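 Where inhibition never reached the appropriate level, the endpoint shown equals the highest concentration tested. Otherwise, values were interpolated linearly from a five-concentration, 48-hour dose response in 96-well plates. At the GI50, growth is halved.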 Active and inactive are the calls of the source. Cut-off read from the data, not from the text of the source: active = GI50 up to about 1.1 µM and inactive = higher.

Legend:
Test in all cases: DTP human tumour cell line panel, 48 h
SF-268 = tested on: SF-268
ACHN = tested on: ACHN
SNB-19 = tested on: SNB-19
SF-539 = tested on: SF-539
A498 = tested on: A498
TK-10 = tested on: TK-10
NCI-H226 = tested on: NCI-H226
HOP-92 = tested on: HOP-92
SNB-75 = tested on: SNB-75
UACC-257 = tested on: UACC-257
K562 = tested on: K562
OVCAR-8 = tested on: OVCAR-8
HL-60 = tested on: HL-60
RXF 393 = tested on: RXF 393
NCI-H23 = tested on: NCI-H23

Measured: GI50

Nc1ccc(C(=O)CC2(O)C(=O)Nc3ccccc32)cc1 (centres undefined)
inactive: SF-268 > 100 µM | ACHN > 100 µM | SNB-19 > 100 µM | SF-539 > 100 µM | A498 > 100 µM | TK-10 > 100 µM | NCI-H226 > 100 µM | HOP-92 > 100 µM | SNB-75 92.9 µM | UACC-257 > 100 µM | K562 > 100 µM | OVCAR-8 > 100 µM | HL-60 38.9 µM | RXF 393 > 100 µM | NCI-H23 > 100 µM

Cc1ccc(NC(=O)CCC/C(CC(=O)c2ccc(Br)cc2)=N/NC(=O)CC#N)cc1
inactive: SF-268 > 100 µM | ACHN > 100 µM | SNB-19 > 100 µM | TK-10 > 100 µM | NCI-H226 > 100 µM | HOP-92 > 100 µM | SNB-75 > 100 µM | UACC-257 > 100 µM | OVCAR-8 > 100 µM | HL-60 > 100 µM | RXF 393 > 100 µM | NCI-H23 > 100 µM

CCOC(=O)N1CCN(P(=O)(Nc2ccc3[nH]c(NC(=O)OC)nc3c2)Oc2ccccc2)CC1 (centres undefined)
inactive: SF-268 > 100 µM | ACHN > 100 µM | A498 > 100 µM | TK-10 > 100 µM | NCI-H226 > 100 µM | HOP-92 > 100 µM | SNB-75 77.6 µM | UACC-257 > 100 µM | K562 35 µM | OVCAR-8 > 100 µM | HL-60 > 100 µM | RXF 393 > 100 µM | NCI-H23 > 100 µM

CNC(=O)NCCCCC(NC(C)=O)C(=O)NCc1ccccc1 (centres undefined)
inactive: SF-268 > 100 µM | ACHN > 100 µM | SNB-19 > 100 µM | SF-539 > 100 µM | A498 > 100 µM | TK-10 > 100 µM | NCI-H226 > 100 µM | HOP-92 > 100 µM | SNB-75 47.1 µM | UACC-257 > 100 µM | K562 > 10 µM | OVCAR-8 > 100 µM | RXF 393 > 100 µM | NCI-H23 > 100 µM

COc1cc2c(cc1OC)C(C(CO)CO)N(CC(O)CCl)CC2 (centres undefined)
inactive: SF-268 > 100 µM | ACHN > 100 µM | SNB-19 > 100 µM | SF-539 > 100 µM | A498 > 100 µM | TK-10 > 100 µM | NCI-H226 > 100 µM | HOP-92 > 100 µM | SNB-75 > 100 µM | UACC-257 > 100 µM | K562 > 100 µM | OVCAR-8 > 100 µM | HL-60 > 100 µM | NCI-H23 > 100 µM

CC(NC(C)(C)C)C(=O)c1cccc(Cl)c1 (centres undefined) [BUPROPION HYDROCHLORIDE]
inactive: SF-268 > 100 µM | ACHN > 100 µM | SF-539 > 100 µM | A498 > 100 µM | TK-10 > 100 µM | SNB-75 > 100 µM | UACC-257 > 100 µM | K562 > 100 µM | OVCAR-8 > 100 µM | RXF 393 > 100 µM | NCI-H23 > 100 µM

CC1CC2(CCC1OCc1ccccc1)OCCO2 (centres undefined)
inactive: SNB-19 > 100 µM | SF-539 > 100 µM | A498 > 100 µM | TK-10 > 100 µM | HOP-92 > 100 µM | UACC-257 > 100 µM | K562 > 100 µM | OVCAR-8 > 100 µM | HL-60 > 100 µM | RXF 393 > 100 µM | NCI-H23 > 100 µM

Nn1c(-c2cccc(Cl)c2)nc2ccccc2c1=O
inactive: SF-268 > 100 µM | ACHN > 100 µM | SNB-19 > 100 µM | SF-539 > 100 µM | A498 > 100 µM | TK-10 > 100 µM | NCI-H226 > 100 µM | HOP-92 > 100 µM | SNB-75 > 100 µM | UACC-257 > 100 µM | K562 > 100 µM | OVCAR-8 > 100 µM | HL-60 > 100 µM | NCI-H23 > 100 µM
